From PubChem BioAssay AID2789 (Sanford-Burnham Center for Chemical Genomics, 2010)
Active and inactive are the calls of the source. The rule behind the calls is not given here.

tested on: NF-kappaB luciferase reporter cells, doxorubicin-induced, luminescence; experiment: NF-kB luciferase suppression after doxorubicin – cell-based, doxorubicin inducer, set 2, SAR follow-up (AID 2789)

| Structure (SMILES) | IC50 |
| --- | --- |
| CCCn1c(SCCc2ccccc2)nc2c1c(=O)[nH]c(=O)n2C | > 25 µM (inactive) |
| CCCCCn1c(SCCc2ccccc2)nc2c1c(=O)[nH]c(=O)n2C | > 25 µM (inactive) |
| C/C=C/Cn1c(SCCCc2ccccc2)nc2c1c(=O)[nH]c(=O)n2C | > 25 µM (inactive) |
| CCCCn1c(SCC(=O)Nc2nnc(CC)s2)nc2c1c(=O)n(C)c(=O)n2C | > 25 µM (inactive) |
| Nc1nc2ccccc2n1CCOc1ccc(Cl)cc1 | > 25 µM (inactive) |
| CC(C)n1c(SCCCc2ccccc2)nc2c1c(=O)[nH]c(=O)n2C | > 25 µM (inactive) |
| C/C=C/Cn1c(SCc2ccccc2)nc2c1c(=O)[nH]c(=O)n2C | > 25 µM (inactive) |
| CCCCn1c(SCC(=O)c2ccccc2)nc2c1c(=O)[nH]c(=O)n2C | > 25 µM (inactive) |
| CC(C)Sc1nc2c(c(=O)[nH]c(=O)n2C)n1Cc1ccccc1 | > 25 µM (inactive) |
| COCCn1c(SCCCc2ccccc2)nc2c1c(=O)[nH]c(=O)n2C | > 25 µM (inactive) |
| C/C(Cl)=C\Cn1c(NCCc2ccccc2)nc2c1c(=O)n(C)c(=O)n2C | > 25 µM (inactive) |
| C/C=C/Cn1c(SCc2ccc(Cl)cc2)nc2c1c(=O)[nH]c(=O)n2C | > 25 µM (inactive) |
| Cn1c(=O)[nH]c(=O)c2c1nc([N+](=O)[O-])n2Cc1ccccc1 | > 25 µM (inactive) |
| CCCn1c(SCC(=O)Nc2nc3c(s2)CCCC3)nc2c1c(=O)n(C)c(=O)n2C | > 25 µM (inactive) |
| C=CCn1c(SCCCc2ccccc2)nc2c1c(=O)[nH]c(=O)n2C | > 25 µM (inactive) |
